Measurements as given in ChEMBL document CHEMBL5223107 (Bioorg Med Chem Lett, 2022).
Activity calls are given as the source filed them. The calls are words filed in the database; no cut-off is given here.

Key:
[1] = target: T1, Androgen receptor (Homo sapiens) (UniProt P10275); experiment: Inhibition of androgen receptor in human 22Rv1 cells assessed as reduction in DHT-induced AR expression level at 1 to 5 uM incubated for 24 hrs by western blot analysis; format: cell-based; conditions: dose 1-5 µM
T1 sequence (whole entry): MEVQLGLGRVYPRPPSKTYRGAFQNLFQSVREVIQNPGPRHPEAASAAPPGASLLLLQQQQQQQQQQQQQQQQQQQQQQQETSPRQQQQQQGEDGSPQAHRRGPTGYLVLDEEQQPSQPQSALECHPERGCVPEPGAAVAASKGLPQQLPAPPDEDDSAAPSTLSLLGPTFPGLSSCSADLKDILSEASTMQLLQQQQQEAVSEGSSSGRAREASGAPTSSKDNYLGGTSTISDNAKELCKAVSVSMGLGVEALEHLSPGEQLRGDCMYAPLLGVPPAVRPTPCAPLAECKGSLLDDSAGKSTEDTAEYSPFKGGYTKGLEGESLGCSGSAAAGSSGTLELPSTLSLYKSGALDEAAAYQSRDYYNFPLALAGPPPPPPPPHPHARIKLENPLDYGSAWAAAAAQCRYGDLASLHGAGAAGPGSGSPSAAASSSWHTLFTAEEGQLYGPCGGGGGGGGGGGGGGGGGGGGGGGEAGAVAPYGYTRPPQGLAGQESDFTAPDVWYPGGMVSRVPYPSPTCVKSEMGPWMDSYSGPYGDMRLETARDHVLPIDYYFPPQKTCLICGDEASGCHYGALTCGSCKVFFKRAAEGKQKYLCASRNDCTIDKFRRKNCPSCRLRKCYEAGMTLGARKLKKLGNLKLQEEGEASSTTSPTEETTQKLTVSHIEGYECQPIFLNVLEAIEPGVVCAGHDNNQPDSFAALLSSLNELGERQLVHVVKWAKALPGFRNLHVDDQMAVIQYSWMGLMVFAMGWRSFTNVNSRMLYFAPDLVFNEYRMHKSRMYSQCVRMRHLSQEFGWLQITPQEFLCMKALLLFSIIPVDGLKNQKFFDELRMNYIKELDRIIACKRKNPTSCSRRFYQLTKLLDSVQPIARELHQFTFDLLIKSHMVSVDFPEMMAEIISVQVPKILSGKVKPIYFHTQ

PC-3 = experiment: Antiproliferative activity against human PC-3 cells assessed as cell growth inhibition incubated for 72 hrs by MTT assay; format: functional, cell-based; conditions: PC-3, 72 h
[2] = target: T1, Androgen receptor (Homo sapiens); experiment: Inhibition of androgen receptor in human 22Rv1 cells assessed as reduction in DHT-induced PSA mRNA expression level at 1 to 5 uM incubated for 24 hrs by qRT-PCR analysis; format: cell-based; conditions: dose 1-5 µM
CWR22R = experiment: Antiproliferative activity against human 22Rv1 cells assessed as cell growth inhibition incubated for 72 hrs by MTT assay; format: functional, cell-based; conditions: 22Rv1, 72 h
[3] = target: T1, Androgen receptor (Homo sapiens); experiment: Inhibition of androgen receptor in human LNCaP cells assessed as reduction in DHT-induced PSA mRNA expression level at 1 to 5 uM incubated for 24 hrs by qRT-PCR analysis; format: cell-based; conditions: dose 1-5 µM
[4] = target: T1, Androgen receptor (Homo sapiens); experiment: Inhibition of androgen receptor in human LNCaP cells assessed as reduction in DHT-induced PSA level at 1 to 5 uM incubated for 24 hrs by western blot analysis; format: cell-based; conditions: dose 1-5 µM
[5] = target: T1, Androgen receptor (Homo sapiens); experiment: Inhibition of androgen receptor in human 22Rv1 cells assessed as reduction in BCL-2 expression level at 1 to 10 uM incubated for 24 hrs by western blot analysis; format: cell-based; conditions: dose 1-10 µM
[6] = target: T1, Androgen receptor (Homo sapiens); experiment: Inhibition of androgen receptor in human LNCaP cells assessed as reduction in DHT-induced AR expression level at 1 to 5 uM incubated for 24 hrs by western blot analysis; format: cell-based; conditions: dose 1-5 µM
[7] = target: T1, Androgen receptor (Homo sapiens); experiment: Inhibition of androgen receptor in human LNCaP cells assessed as reduction in DHT-induced AR mRNA expression level at 1 to 5 uM incubated for 24 hrs by qRT-PCR analysis; format: cell-based; conditions: dose 1-5 µM
[8] = target: T1, Androgen receptor (Homo sapiens); experiment: Inhibition of androgen receptor in human 22Rv1 cells assessed as reduction in DHT-induced AR mRNA expression level at 1 to 5 uM incubated for 24 hrs by qRT-PCR analysis; format: cell-based; conditions: dose 1-5 µM
[9] = target: T1, Androgen receptor (Homo sapiens); experiment: Inhibition of androgen receptor in human 22Rv1 cells assessed as reduction in DHT-induced PSA level at 1 to 5 uM incubated for 24 hrs by western blot analysis; format: cell-based; conditions: dose 1-5 µM
LNCaP = experiment: Antiproliferative activity against human LNCaP cells assessed as cell growth inhibition incubated for 72 hrs by MTT assay; format: functional, cell-based
[10] = target: T1, Androgen receptor (Homo sapiens); experiment: Inhibition of androgen receptor in human PC-3 cells assessed as inhibition of AR transcription activity by dual-luciferase reporter assays; format: cell-based
[11] = target: T1, Androgen receptor (Homo sapiens); experiment: Inhibition of androgen receptor in human 22Rv1 cells assessed as reduction in […] expression level at 1 to 10 uM incubated for 24 hrs by western blot analysis; format: cell-based; conditions: dose 1-10 µM

inhibition [1]: Active | IC50 (PC-3): 3160 nM | inhibition [2]: Dose-Dependent Effect | inhibition [3]: Dose-Dependent Effect | inhibition [4]: Dose-Dependent Effect | inhibition [5]: Active | inhibition [6]: Dose-Dependent Effect | inhibition [7]: Dose-Dependent Effect | inhibition [8]: Dose-Dependent Effect | inhibition [9]: Active | IC50 (LNCaP): 350 nM | inhibition [10]: Dose-Dependent Effect | inhibition [11]: Active
SMILES: CC1=CC2C(C(C)C)=C(O)C(=O)/C(=C\NCCS(=O)(=O)O)C2C(O)=C1c1c(C)cc2c(c1O)/C(=C/NCCS(=O)(=O)O)C(=O)C(O)=C2C(C)C (centres undefined)
IC50 (CWR22R): 910 nM
